In US20080318942A1, “Fredericamycin Derivatives” (BIOAGENCY AG, priority 2005, published 2008):

Tested on: human breast cancer cell line MCF7
Assay: Efficacy of the compounds on the survival of tumor cells (cytotoxic effect, cell-titer Glo luminescence)
Format: cell-based
Details: 48 hours incubation with compound (2.4 nM to 10,000 nM), inhibition of cell survival
Description: The effect of the compounds on the survival of the human breast cancer cell line MCF7 was measured.
The cell line was analyzed at 37° C. [98.6° F.], 95% humidity and 5% CO2 in RPMI Medium (Cambrex).
The cells are inoculated in a 96-well microtiter plate (Costar) at an initial density of 2400 cells per well and cultivated for 24 hours.
The compounds are dissolved in DMSO, diluted with cell medium and added to the wells.
The cells are incubated for another 48 hours at a concentration of the compounds between 2.4 nM and 10,000 nM at a volume of 50 μl.
50 μl of cell-titer Glo (Promega) are added to each well and the microtiter plate is incubated for 2 minutes at room temperature on a shaker and then left standing in the dark for 10 minutes.
The luminescence is measured with a microplate reader and is proportional to the number of surviving cells. The percentage of inhibition of the cell survival is calculated in comparison to (i) without cells and with compound (100% inhibition) and (ii) with cells and without compound (no inhibition).
The concentration of the half-maximum inhibition (IC50) is determined with GraphPad Prism (GraphPad Software), whereby the controls are 0% and 100%.

Compound | IC50 (Homo sapiens) [nM] | IC50 [nM]
CON=Cc1cc2c(Br)c3c(c(O)c2c(=O)[nH]1)[C@]1(CC3)C(=O)c2c(O)c3c(c(O)c2C1=O)C(=O)C(N(C)C)=C(Br)C3=O [Compound 13, (8S)-4′,9,9′-trihydroxy-5,7′-dibromo-6′-dimethylamino-1,1′,3′,5′,8′-pentaoxo-1,1′,2,3′,5′,6,7,8′-octahydrospiro-[cyclopenta[g]-isoquinoline-8,2′-cyclopenta[b]naphthalene]-3-carbaldehyde-O-methyloxime] | 300 | 
(8S)-4,9,9′-trihydroxy-5,7′-dibromo-6′-cyclopropylamino-1,1′,3′,5′,8′-pentaoxo-1,1′,2,3′,5′,6,7,8′-octahydrospiro-[cyclopenta[g]-isoquinoline-8,2′-cyclopenta[b]naphthalene]-3-carbaldehyde-O-methyloxime [Compound 12] |  | 380
C/C=C/C=C/c1cc2c(CN(C)C)c3c(c(O)c2c(=O)[nH]1)[C@@]1(CC3)C(=O)c2c(O)c3c(c(O)c2C1=O)C(=O)C(NC)=CC3=O [Compound 7a, (8S)-4′,9,9′-trihydroxy-5-dimethylaminomethyl-6′-methylamine-3-[(1E,3E)-penta-1,3-dienyl]-6,7-dihydrospiro[cyclopenta[g]-isoquinoline-8,2′-cyclopenta[b]-naphthalene]-1,1′-3′,5′,8′(2H)-pentone] |  | 660
C/C=C/C=C/c1cc2c(Br)c3c(c(O)c2c(=O)[nH]1)[C@]1(CC3)C(=O)c2c(O)c3c(c(O)c2C1=O)C(=O)C(N1CCOCC1)=C(Br)C3=O [Compound 9, (BS)-4′,9,9′-trihydroxy-5,7′-dibromo-6′-morpholino-3-[(1E,3E)-penta-1,3-dienyl]-6,7-dihydrospiro[cyclopenta[g]-isoquinoline-8,2′-cyclopenta[b]-naphthalene]-1,1′-3′,5′,8′(2H)-pentone] |  | 670
C/C=C/C=C/c1cc2c(Br)c3c(c(O)c2c(=O)[nH]1)[C@]1(CC3)C(=O)c2c(O)c3c(c(O)c2C1=O)C(=O)C(NC)=C(Br)C3=O [Compound 7, (8S)-4′,9,9′-trihydroxy-5,7′-dibromo-6′-methylamino-3-[(1E,3E)-penta-1,3-dienyl]-6,7-dihydrospiro[cyclopenta[g]-isoquinoline-8,2′-cyclopenta[b]-naphthalene]-1,1′-3′,5′,8′(2H)-pentone] |  | 190
